Our source for the Ki values is ChEMBL document CHEMBL4145602, “Cyclic Peptidic Mimetics of Apollo Peptides Targeting Telomeric Repeat Binding Factor 2 (TRF2) and Apollo Interaction” (ACS Med Chem Lett, 2018).

Usually Ki stands for a measure of affinity in units of concentration, obtained from inhibition or displacement.

Square brackets hold non-standard residues; d marks the D form. Peptide text beside a SMILES is read from it. Phe(4-NH2) = Nc1ccc(C[C@H](N)C(=O)O)cc1; Gly(cPent) = N[C@H](C(=O)O)C1CCCC1; tBuAla = CC(C)(C)C[C@H](N)C(=O)O; Cha = N[C@@H](CC1CCCCC1)C(=O)O; Chg = N[C@H](C(=O)O)C1CCCCC1; Nva = CCC[C@H](N)C(=O)O Where only a bound is given, the exact number is not on record here.

The assay concerns the target T1, Telomeric repeat-binding factor 2 (Homo sapiens, UniProt Q15554).
T1 sequence (Q15554 whole entry): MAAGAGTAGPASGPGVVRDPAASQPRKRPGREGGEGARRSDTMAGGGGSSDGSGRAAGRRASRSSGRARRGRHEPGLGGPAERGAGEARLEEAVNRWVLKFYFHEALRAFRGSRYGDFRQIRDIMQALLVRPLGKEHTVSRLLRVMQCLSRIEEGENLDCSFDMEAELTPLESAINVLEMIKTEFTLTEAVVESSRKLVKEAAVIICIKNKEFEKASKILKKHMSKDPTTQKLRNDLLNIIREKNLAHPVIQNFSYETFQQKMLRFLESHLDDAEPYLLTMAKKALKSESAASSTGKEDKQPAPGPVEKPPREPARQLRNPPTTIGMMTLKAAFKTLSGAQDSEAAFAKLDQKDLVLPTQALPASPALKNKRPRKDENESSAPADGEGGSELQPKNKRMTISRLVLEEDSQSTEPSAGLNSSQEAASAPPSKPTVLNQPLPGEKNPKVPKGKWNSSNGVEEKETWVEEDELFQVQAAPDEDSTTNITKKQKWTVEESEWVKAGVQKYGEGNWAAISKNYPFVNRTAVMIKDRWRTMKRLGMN
Kind of assay: Displacement of 5-((2R,6S,9S,12S,15S,18S,21S,24S)-3-((S)-2-((S)-1-amino-3-methyl-1-oxobutan-2-ylcarbamoyl)pyrrolidine-1-carbonyl)-15-(4-aminobutyl)-2-hydroxy-12-(4-hydroxybenzyl)-6,9,18,24-tetraisobutyl-21-methyl-5,8,11,14,17,20,23,26,29-nonaoxo-4,7,10,13,16,19,22,25,28-nonaazatetratriacontan-34-ylcarbamoyl)-2-(6-hydroxy-3-oxo-3H-xanthen-9-yl)benzoic acid from TRF2 TRFH domain (unknown origin) after 30 mins by fluorescence polarization assay.
In turn, `CC(C)C[C@H](NC(=O)CN)C(=O)N[C@@H](C)C(=O)N[C@@H](CC(C)C)C(=O)N[C@@H](CCCCN)C(=O)N[C@@H](Cc1ccc(O)cc1)C(=O)N[C@@H](CC(C)C)C(=O)N[C@@H](CC(C)C)C(=O)N[C@H](C(=O)N1CCC[C@H]1C(=O)N[C@H](C(=O)O)C(C)C)[C@@H](C)O` (H-GLALKYLLTPV-OH) had a Ki of 0.38 µM. Compound `CC(C)C[C@@H]1NC(=O)[C@@H](NC(=O)[C@@H](N)Cc2ccc(O)cc2)CCCCCCC[C@@H](C(=O)N(C)C)NC(=O)[C@@H]2CCCN2C(=O)[C@H](C)NC1=O` gave a Ki of 58.2 µM.

In turn, `CC(=O)N[C@@H](CC(C)C)C(=O)N[C@@H](C)C(=O)N[C@@H](CC(C)C)C(=O)N[C@@H](CCCCN)C(=O)N[C@@H](Cc1ccc(O)cc1)C(=O)N[C@H]1CCCCCCC[C@@H](C(=O)N(C)C)NC(=O)[C@@H]2CCCN2C(=O)[C@H](C)NC(=O)[C@H](CC(C)C)NC1=O` came in with a Ki of 0.09 µM. The compound `CC(=O)N[C@@H](CC(C)C)C(=O)N[C@@H](C)C(=O)N[C@@H](CC(C)C)C(=O)N[C@@H](CCCCN)C(=O)N[C@@H](Cc1ccc(O)cc1)C(=O)N[C@@H](CC(C)C)C(=O)N[C@@H](CC(C)C)C(=O)N[C@H](C(=O)N1CCC[C@H]1C(=O)O)[C@@H](C)O` (Ac-LALKYLLTP-OH) had a Ki of 1.89 µM. Turning to `CC(C)C[C@H](NC(=O)[C@H](Cc1ccc(O)cc1)NC(=O)[C@@H](N)CCCCN)C(=O)N[C@@H](CC(C)C)C(=O)N[C@H](C(=O)N1CCC[C@H]1C(=O)N[C@H](C(=O)O)C(C)C)[C@@H](C)O` (H-KYLLTPV-OH), the affinity, expressed as Ki, was 123 µM. The value for `CC(=O)N[C@@H](CC(C)C)C(=O)N[C@@H](C)C(=O)N[C@@H](CC(C)C)C(=O)N[C@@H](CCCCN)C(=O)N[C@@H](Cc1ccc(O)cc1)C(=O)N[C@@H](CC(C)C)C(=O)N[C@H](C(=O)N[C@H](C(=O)N1CCC[C@H]1C(=O)N[C@H](C(N)=O)C(C)C)[C@@H](C)O)C1CCCC1` (Ac-LALKYL[Gly(cPent)]TPV-NH2) was 0.51 µM. As for `CC(=O)N[C@@H](CC(C)C)C(=O)N[C@@H](C)C(=O)N[C@@H](CC(C)C)C(=O)N[C@@H](CCCCN)C(=O)N[C@@H](Cc1ccc(N)cc1)C(=O)N[C@@H](CC(C)C)C(=O)N[C@@H](CC(C)C)C(=O)N[C@H](C(=O)N1CCC[C@H]1C(=O)N[C@H](C(N)=O)C(C)C)[C@@H](C)O` (Ac-LALK[Phe(4-NH2)]LLTPV-NH2), the Ki was determined as 0.72 µM. With `CC(=O)N[C@@H](CC(C)C)C(=O)N[C@@H](C)C(=O)N[C@@H](CC(C)C)C(=O)N[C@@H](CCCCN)C(=O)N[C@@H](Cc1ccc(O)cc1)C(=O)N[C@@H](CC(C)C)C(=O)N[C@@H](CC(C)C)C(=O)O` (Ac-LALKYLL-OH), affinity was put at a Ki of 98 µM. Compound `CC(C)C[C@@H]1NC(=O)[C@@H](NC(=O)[C@H](Cc2ccccc2)NC(=O)CCc2ccccc2)CCCCCCC[C@@H](C(=O)N(C)C)NC(=O)[C@@H]2CCCN2C(=O)[C@H](C)NC1=O` returned a Ki of 11.2 µM.

For `CC(=O)N[C@@H](CC(C)C)C(=O)N[C@@H](C)C(=O)N[C@@H](CC(C)C)C(=O)N[C@@H](CCCCN)C(=O)N[C@@H](Cc1ccccc1)C(=O)N[C@@H](CC(C)C)C(=O)N[C@@H](CC(C)C)C(=O)N[C@H](C(=O)N1CCC[C@H]1C(=O)N[C@H](C(N)=O)C(C)C)[C@@H](C)O` (Ac-LALKFLLTPV-NH2), affinity was put at a Ki of 3.4 µM. Compound `CC(=O)N[C@@H](CC(C)C)C(=O)N[C@@H](C)C(=O)N[C@@H](CC(C)C)C(=O)N[C@@H](CCCCN)C(=O)N[C@@H](Cc1ccc(O)cc1)C(=O)N[C@@H](CC(C)C)C(=O)N[C@@H](CC1CCCCC1)C(=O)N[C@H](C(=O)N1CCC[C@H]1C(=O)N[C@H](C(N)=O)C(C)C)[C@@H](C)O` (Ac-LALKYL[Cha]TPV-NH2) came in with a Ki of 1.4 µM. Take `CC(C)C[C@@H]1NC(=O)[C@@H](NC(=O)[C@H](Cc2ccccc2)NC(=O)C[C@@H](N)Cc2ccccc2)CCCCCCC[C@@H](C(=O)N(C)C)NC(=O)[C@@H]2CCCN2C(=O)[C@H](C)NC1=O`: the Ki amounted to 14.3 µM. Take `CC(C)C[C@H](NC(=O)[C@H](C)N)C(=O)N[C@@H](CCCCN)C(=O)N[C@@H](Cc1ccc(O)cc1)C(=O)N[C@@H](CC(C)C)C(=O)N[C@@H](CC(C)C)C(=O)N[C@H](C(=O)N1CCC[C@H]1C(=O)N[C@H](C(=O)O)C(C)C)[C@@H](C)O` (H-ALKYLLTPV-OH): the Ki stood at 22.8 µM. `CC(=O)N[C@@H](CC(C)C)C(=O)N[C@@H](C)C(=O)N[C@@H](CC(C)C)C(=O)N[C@@H](CCCCN)C(=O)N[C@@H](Cc1ccc(O)cc1)C(=O)N[C@@H](CC(C)C)C(=O)N[C@@H](CC(C)C)C(=O)N[C@@H](C)C(=O)N1CCC[C@H]1C(=O)N[C@H](C(N)=O)C(C)C` (Ac-LALKYLLAPV-NH2) returned a Ki of 0.24 µM. With `CC[C@H](C)[C@H](NC(=O)[C@H](CC(C)C)NC(=O)[C@H](Cc1ccc(O)cc1)NC(=O)[C@H](CCCCN)NC(=O)[C@H](CC(C)C)NC(=O)[C@H](C)NC(=O)[C@H](CC(C)C)NC(C)=O)C(=O)N[C@H](C(=O)N1CCC[C@H]1C(=O)N[C@H](C(N)=O)C(C)C)[C@@H](C)O` (Ac-LALKYLITPV-NH2), the affinity, expressed as Ki, was 11.3 µM. The same measure for `CC(C)C[C@@H]1NC(=O)[C@@H](NC(=O)[C@@H](N)Cc2ccccc2)CCCCCC[C@@H](C(=O)N(C)C)NC(=O)[C@@H]2CCCN2C(=O)[C@H](C)NC1=O`: 130 µM. `CCC[C@H](NC(=O)[C@H](CC(C)C)NC(=O)[C@H](Cc1ccc(O)cc1)NC(=O)[C@H](CCCCN)NC(=O)[C@H](CC(C)C)NC(=O)[C@H](C)NC(=O)[C@H](CC(C)C)NC(C)=O)C(=O)N[C@H](C(=O)N1CCC[C@H]1C(=O)N[C@H](C(N)=O)C(C)C)[C@@H](C)O` (Ac-LALKYL[Nva]TPV-NH2) had a Ki of 4.7 µM. The value for `CC(=O)N[C@@H](CC(C)C)C(=O)N[C@@H](C)C(=O)N[C@@H](CC(C)C)C(=O)N[C@@H](CCCCN)C(=O)N[C@@H](Cc1ccc(O)cc1)C(=O)N[C@@H](CC(C)C)C(=O)N[C@@H](CC(C)C)C(=O)N[C@H](C(=O)N1CCC[C@H]1C(=O)N[C@H](C(=O)O)C(C)C)[C@@H](C)O` (Ac-LALKYLLTPV-OH) was 0.34 µM.

`CC(C)C[C@H](NC(=O)[C@H](C)NC(=O)[C@@H](N)CC(C)C)C(=O)N[C@@H](CCCCN)C(=O)N[C@@H](Cc1ccc(O)cc1)C(=O)N[C@@H](CC(C)C)C(=O)N[C@@H](CC(C)C)C(=O)N[C@H](C(=O)N1CCC[C@H]1C(=O)N[C@H](C(=O)O)C(C)C)[C@@H](C)O` (H-LALKYLLTPV-OH) came in with a Ki of 2.2 µM. Regarding `CC(C)C[C@@H]1NC(=O)[C@@H](N)CCCCCCC[C@@H](C(=O)N(C)C)NC(=O)[C@@H]2CCCN2C(=O)[C@H](C)NC1=O`, the Ki was 115 µM. Compound `CC(=O)N[C@@H](CC(C)C)C(=O)N[C@@H](C)C(=O)N[C@@H](CC(C)C)C(=O)N[C@@H](CCCCN)C(=O)N[C@@H](Cc1ccc(O)cc1)C(=O)N[C@@H](CC(C)C)C(=O)N[C@@H](CC(C)(C)C)C(=O)N[C@H](C(=O)N1CCC[C@H]1C(=O)N[C@H](C(N)=O)C(C)C)[C@@H](C)O` (Ac-LALKYL[tBuAla]TPV-NH2) showed an inhibitory constant (Ki) of 6.1 µM. On to `CC(=O)N[C@@H](CC(C)C)C(=O)N[C@@H](C)C(=O)N[C@@H](CC(C)C)C(=O)N[C@@H](CCCCN)C(=O)N[C@@H](Cc1ccc(O)cc1)C(=O)N[C@@H](CC(C)C)C(=O)N[C@H](C(=O)N[C@H](C(=O)N1CCC[C@H]1C(=O)N[C@H](C(N)=O)C(C)C)[C@@H](C)O)C(C)C` (Ac-LALKYLVTPV-NH2), for which affinity was put at a Ki of 61.2 µM. The same measure for `CC(=O)N[C@@H](CC(C)C)C(=O)N[C@@H](C)C(=O)N[C@@H](CC(C)C)C(=O)N[C@@H](CCCCN)C(=O)N[C@@H](Cc1ccc(O)cc1)C(=O)N[C@@H](CC(C)C)C(=O)N[C@@H](CC(C)C)C(=O)N[C@H](C(=O)O)[C@@H](C)O` (Ac-LALKYLLT-OH): 26.3 µM. `CC(C)C[C@H](NC(=O)[C@@H](N)CC(C)C)C(=O)N[C@H](C(=O)N1CCC[C@H]1C(=O)N[C@H](C(N)=O)C(C)C)[C@@H](C)O` (H-LLTPV-NH2) returned a Ki above 500 µM. The same measure for `CC(=O)N[C@@H](CC(C)C)C(=O)N[C@@H](C)C(=O)N[C@@H](CC(C)C)C(=O)N[C@@H](CCCCN)C(=O)N[C@@H](Cc1ccc(O)cc1)C(=O)N[C@@H](CC(C)C)C(=O)O` (Ac-LALKYL-OH): 461 µM; for `CC(C)C[C@@H]1NC(=O)[C@@H](NC(=O)[C@@H](N)Cc2ccccc2)CCCCCCCC[C@@H](C(=O)N(C)C)NC(=O)[C@@H]2CCCN2C(=O)[C@H](C)NC1=O`: 43.2 µM. For `CC(C)C[C@@H]1NC(=O)[C@@H](NC(=O)[C@H](Cc2ccc(O)cc2)NC(=O)[C@@H](N)CCCCN)CCCCCCC[C@@H](C(=O)N(C)C)NC(=O)[C@@H]2CCCN2C(=O)[C@H](C)NC1=O`, the Ki was determined as 18.4 µM. As for `CC(=O)N[C@@H](CC(C)C)C(=O)N[C@@H](C)C(=O)N[C@@H](CC(C)C)C(=O)N[C@@H](CCCCN)C(=O)N[C@@H](Cc1ccc(O)cc1)C(=O)N[C@@H](CC(C)C)C(=O)N[C@H](C(=O)N[C@H](C(=O)N1CCC[C@H]1C(=O)N[C@H](C(N)=O)C(C)C)[C@@H](C)O)C1CCCCC1` (Ac-LALKYL[Chg]TPV-NH2), the affinity corresponds to a Ki of 0.21 µM. For `CC(C)C[C@@H]1NC(=O)[C@@H](NC(=O)[C@@H](N)Cc2ccccc2)CCCCCCC[C@@H](C(=O)N(C)C)NC(=O)[C@@H]2CCCN2C(=O)[C@H](C)NC1=O`, affinity was put at a Ki of 41.4 µM.
